# Literature values, collected in patent publication US20130040971A1, “6-CYCLOALKYL-PYRAZOLOPYRIMIDINONES FOR THE TREATMENT OF CNS DISORDERS” (Boehringer Ingelheim International GmbH, priority 2011, published 2013).
# Target: human PDE9A (Homo sapiens, UniProt O76083)
# Conditions: concentrations of up to 100 micromolar (μM)
# Sequence of human PDE9A (O76083 whole entry): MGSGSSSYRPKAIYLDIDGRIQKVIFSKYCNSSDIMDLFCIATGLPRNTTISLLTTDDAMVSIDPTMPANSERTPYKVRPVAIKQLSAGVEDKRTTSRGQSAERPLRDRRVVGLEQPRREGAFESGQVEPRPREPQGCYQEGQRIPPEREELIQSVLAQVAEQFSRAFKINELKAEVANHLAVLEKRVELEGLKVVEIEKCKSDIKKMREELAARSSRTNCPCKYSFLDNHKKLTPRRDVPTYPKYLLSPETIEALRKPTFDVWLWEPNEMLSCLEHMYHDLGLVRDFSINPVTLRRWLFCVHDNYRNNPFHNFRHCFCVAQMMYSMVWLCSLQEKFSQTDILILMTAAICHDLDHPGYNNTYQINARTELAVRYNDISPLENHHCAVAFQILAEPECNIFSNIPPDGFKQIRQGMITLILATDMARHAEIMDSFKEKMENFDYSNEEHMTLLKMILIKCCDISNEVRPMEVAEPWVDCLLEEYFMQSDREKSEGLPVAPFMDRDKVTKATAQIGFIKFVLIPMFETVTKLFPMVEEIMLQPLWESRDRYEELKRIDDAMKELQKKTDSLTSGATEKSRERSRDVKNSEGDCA
row,SMILES,inhibition on the isolated enzyme (human PDE9A)
1,CCOC(=O)C1=C[C@]2(CC)CCCN3CCc4c(n1c1ccccc41)[C@@H]32 [vinpocetine],no inhibition
2,OCCN(CCO)c1nc(N2CCCCC2)c2nc(N(CCO)CCO)nc(N3CCCCC3)c2n1 [dipyridamole],no inhibition
3,COc1ccc(C2CNC(=O)C2)cc1OC1CCCC1 (stereo not drawn) [rolipram],no inhibition
4,CC(=O)Nc1ccc(-c2c[nH]c(=O)cn2)cc1 [SKF94120],no inhibition
5,CC(C)Cn1c(=O)n(C)c(=O)c2[nH]cnc21 [IBMX],no inhibition

# Target: T1, Murine PDE9A (Mus musculus, UniProt O70628)
# T1 sequence (O70628 1-534): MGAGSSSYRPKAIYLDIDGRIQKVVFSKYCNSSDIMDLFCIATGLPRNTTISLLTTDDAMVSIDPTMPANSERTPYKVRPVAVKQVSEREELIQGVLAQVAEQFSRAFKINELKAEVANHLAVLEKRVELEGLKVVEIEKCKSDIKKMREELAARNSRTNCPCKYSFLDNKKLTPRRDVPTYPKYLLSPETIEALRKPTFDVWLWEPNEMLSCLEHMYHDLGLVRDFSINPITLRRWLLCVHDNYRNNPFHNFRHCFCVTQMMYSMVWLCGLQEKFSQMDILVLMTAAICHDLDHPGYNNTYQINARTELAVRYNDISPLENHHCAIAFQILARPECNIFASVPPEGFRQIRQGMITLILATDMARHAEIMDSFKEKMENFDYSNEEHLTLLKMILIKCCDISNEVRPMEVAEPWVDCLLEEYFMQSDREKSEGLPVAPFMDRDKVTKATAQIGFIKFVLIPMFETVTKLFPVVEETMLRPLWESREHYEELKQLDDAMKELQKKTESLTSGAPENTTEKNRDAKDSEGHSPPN
# Conditions: concentrations below 200 micromolar
row,SMILES,inhibition of murine PDE9A
1,CC(C)Cn1c(=O)n(C)c(=O)c2[nH]cnc21 [IBMX],not inhibited
